Reference: patent US7138361B2, “Herbicidal heterocycles” (E. I. du Pont de Nemours and Company, priority 2000, dated 2006)

How the values were obtained:
Format in all cases: in vivo
[1] = system: Surinam grass (Brachiaria decumbens); test: Test B preemergence
Procedure, shortened: (§1)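 Visual injury scores, 0 = no effect to 100 = complete control, assigned against controls after 13 to 15 days in the greenhouse. Compounds formulated in non-phytotoxic solvent plus surfactant and applied to soil after planting (pre) or onto foliage of 1- to 4-leaf plants (post).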

[2] = system: barnyardgrass (Echinochloa crus-galli); test: Test B preemergence
Procedure, shortened: as §1

[3] = system: cocklebur (Xanthium strumarium); test: Test B preemergence
Procedure, shortened: as §1

corn (Zea mays) = test: Test B preemergence
Procedure, shortened: as §1

[4] = system: crabgrass (Digitaria sanguinalis); test: Test B preemergence
Procedure, shortened: as §1

[5] = system: giant foxtail (Setaria faberii); test: Test B preemergence
Procedure, shortened: as §1

[6] = system: lambsquarters (Chenopodium album); test: Test B preemergence
Procedure, shortened: as §1

[7] = system: morning glory (Ipomoea hederacea); test: Test B preemergence
Procedure, shortened: as §1

[8] = system: pigweed (Amaranthus retroflexus); test: Test B preemergence
Procedure, shortened: as §1

rice (Oryza saliva) = test: Test B preemergence
Procedure, shortened: as §1

[9] = system: velvetleaf (Abutilon theophrasti); test: Test B preemergence
Procedure, shortened: as §1

[10] = system: Surinam grass (Brachiaria decumbens); test: Test C preemergence; conditions: for Plant response rating, Surinam grass: scale 0 to 100, 0 no effect, 100 complete control; for Plant response rating (0 to 100), Surinam grass: visual evaluation after 12 to 14 days
Procedure, shortened: (§2)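 Preemergence: seeds sown then treated. Postemergence: plants 2–18 cm, 1- to 4-leaf. Both with surfactant-containing solvent formulation; visual injury scored 0–100 after 12–14 d.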

[11] = system: bermudagrass (Cynodon dactylon); test: Test C preemergence; conditions: for Plant response rating, Bermudagrass: scale 0 to 100, 0 no effect, 100 complete control; for Plant response rating (0 to 100 where 0 is no effect and 100 is complete control), Bermudagrass: visual evaluation after 12 to 14 days
Procedure, shortened: as §2

[12] = system: cocklebur (Xanthium strumarium); test: Test C preemergence; conditions: for Plant response rating, Cocklebur: scale 0 to 100, 0 no effect, 100 complete control; for Plant response rating (0 to 100), Cocklebur: visual evaluation after 12 to 14 days
Procedure, shortened: as §2

[13] = system: crabgrass (Digitaria sanguinalis); test: Test C preemergence; conditions: for Plant response rating, Crabgrass: scale 0 to 100, 0 no effect, 100 complete control; for Plant response rating (0 to 100), Crabgrass: visual evaluation after 12 to 14 days
Procedure, shortened: as §2

[14] = system: giant foxtail (Setaria faberii); test: Test C preemergence; conditions: for Plant response rating, Foxtail, Giant: scale 0 to 100, 0 no effect, 100 complete control; for Plant response rating (0 to 100), Foxtail, Giant: visual evaluation after 12 to 14 days
Procedure, shortened: as §2

kochia (Kochia scoparia) = test: Test C preemergence; conditions: for Plant response rating, Kochia: scale 0 to 100, 0 no effect, 100 complete control; for Plant response rating (0 to 100), Kochia: visual evaluation after 12 to 14 days
Procedure, shortened: as §2

[15] = system: pigweed (Amaranthus retroflexus); test: Test C preemergence; conditions: preemergence; for Plant response rating (0 to 100), Pigweed: Rate 500 g/ha, visual evaluation after 12 to 14 days; for Plant response rating, Pigweed: scale 0 to 100, 0 no effect, 100 complete control
Procedure, shortened: as §2

soybean (Glycine max) = test: Test C preemergence; conditions: preemergence; for Plant response rating (0 to 100), Soybean: Rate 500 g/ha, visual evaluation after 12 to 14 days; for Plant response rating, Soybean: scale 0 to 100, 0 no effect, 100 complete control
Procedure, shortened: as §2

[16] = system: woolly cupgrass (Eriochloa villosa); test: Test C preemergence; conditions: for Plant response rating, Cupgrass, Woolly: scale 0 to 100, 0 no effect, 100 complete control; for Plant response rating (0 to 100), Cupgrass, Woolly: visual evaluation after 12 to 14 days
Procedure, shortened: as §2

Nightshade = test: Test C preemergence; conditions: Rate 500 g/ha, visual evaluation after 12 to 14 days
Sunflower = test: Test C preemergence; conditions: scale 0 to 100, 0 no effect, 100 complete control
[17] = Preemergence, Rate 500 g/ha, scale 0 to 100, 0 no effect, 100 complete control
[18] = preemergence, Rate 125 g/ha, scale of 0 to 100 where 0 is no effect and 100 is complete control, 13 to 15 days

SMILES: CC1(c2ccn(C3SCN(c4cccc(OC(F)(F)F)c4)C3=O)n2)CC1 (stereo not shown) [Compound 63]
- Plant response rating, Surinam grass [1, 17]: 30
- Plant response rating, Surinam grass [1, 18]: 0
- Plant response rating, Barnyardgrass [2, 17]: 90
- Plant response rating, Barnyardgrass [2, 18]: 50
- Plant response rating, Cocklebur [3, 17]: 0
- Plant response rating, Cocklebur [3, 18]: 0
- Plant response rating, Corn (corn (Zea mays); [17]): 0
- Plant response rating, Corn (corn (Zea mays); [18]): 0
- Plant response rating, Crabgrass [4, 17]: 100
- Plant response rating, Crabgrass [4, 18]: 0
- Plant response rating, Foxtail, Giant [5, 17]: 90
- Plant response rating, Foxtail, Giant [5, 18]: 50
- Plant response rating, Lambsquarters [6, 17]: 100
- Plant response rating, Lambsquarters [6, 18]: 100
- Plant response rating, Morningglory [7, 17]: 0
- Plant response rating, Morningglory [7, 18]: 0
- Plant response rating, Pigweed [8, 17]: 100
- Plant response rating, Pigweed [8, 18]: 100
- Plant response rating, Rice (rice (Oryza saliva); [17]): 0
- Plant response rating, Rice (rice (Oryza saliva); [18]): 0
- Plant response rating, Velvetleaf [9, 17]: 0
- Plant response rating, Velvetleaf [9, 18]: 0
- Plant response rating, Surinam grass ([10]; Rate 62 g/ha): 20
- Plant response rating (0 to 100), Surinam grass ([10]; preemergence, Rate 250 g/ha): 70
- Plant response rating (0 to 100), Surinam grass ([10]; preemergence, Rate 500 g/ha): 100
- Plant response rating, Surinam grass ([10]; preemergence, Rate 125 g/ha): 20
- Plant response rating, Bermudagrass ([11]; Rate 62 g/ha): 100
- Plant response rating (0 to 100 where 0 is no effect and 100 is complete control), Bermudagrass ([11]; preemergence, Rate 250 g/ha): 100
- Plant response rating (0 to 100 where 0 is no effect and 100 is complete control), Bermudagrass ([11]; preemergence, Rate 500 g/ha): 100
- Plant response rating, Bermudagrass ([11]; preemergence, Rate 125 g/ha): 100
- Plant response rating, Cocklebur ([12]; Rate 62 g/ha): 0
- Plant response rating (0 to 100), Cocklebur ([12]; preemergence, Rate 250 g/ha): 30
- Plant response rating (0 to 100), Cocklebur ([12]; preemergence, Rate 500 g/ha): 30
- Plant response rating, Cocklebur ([12]; preemergence, Rate 125 g/ha): 0
- Plant response rating, Crabgrass ([13]; Rate 62 g/ha): 100
- Plant response rating (0 to 100), Crabgrass ([13]; preemergence, Rate 250 g/ha): 100
- Plant response rating (0 to 100), Crabgrass ([13]; preemergence, Rate 500 g/ha): 100
- Plant response rating, Crabgrass ([13]; preemergence, Rate 125 g/ha): 100
- Plant response rating, Foxtail, Giant ([14]; Rate 62 g/ha): 20
- Plant response rating (0 to 100), Foxtail, Giant ([14]; preemergence, Rate 250 g/ha): 100
- Plant response rating (0 to 100), Foxtail, Giant ([14]; preemergence, Rate 500 g/ha): 100
- Plant response rating, Foxtail, Giant ([14]; preemergence, Rate 125 g/ha): 90
- Plant response rating, Kochia (kochia (Kochia scoparia); Rate 62 g/ha): 70
- Plant response rating (0 to 100), Kochia (kochia (Kochia scoparia); preemergence, Rate 250 g/ha): 100
- Plant response rating (0 to 100), Kochia (kochia (Kochia scoparia); preemergence, Rate 500 g/ha): 100
- Plant response rating, Kochia (kochia (Kochia scoparia); preemergence, Rate 125 g/ha): 100
- Plant response rating (0 to 100), Pigweed [15]: 100
- Plant response rating, Pigweed ([15]; Rate 125 g/ha): 100
- Plant response rating, Pigweed ([15]; Rate 250 g/ha): 100
- Plant response rating (0 to 100), Soybean (soybean (Glycine max)): 40
- Plant response rating, Soybean (soybean (Glycine max); Rate 125 g/ha): 0
- Plant response rating, Soybean (soybean (Glycine max); Rate 250 g/ha): 0
- Plant response rating, Cupgrass, Woolly ([16]; Rate 62 g/ha): 20
- Plant response rating (0 to 100), Cupgrass, Woolly ([16]; preemergence, Rate 250 g/ha): 60
- Plant response rating (0 to 100), Cupgrass, Woolly ([16]; preemergence, Rate 500 g/ha): 100
- Plant response rating, Cupgrass, Woolly ([16]; preemergence, Rate 125 g/ha): 60
- Plant response rating (0 to 100), Nightshade (Nightshade): 100
- Plant response rating, Sunflower (Sunflower; Rate 125 g/ha): 0
- Plant response rating, Sunflower (Sunflower; Rate 250 g/ha): 40

SMILES: CC1(c2ccn(C3SCN(c4cccc(C(F)(F)F)c4)C3=O)n2)CC1 (stereo not shown) [Compound 64]
- Plant response rating, Surinam grass [1, 17]: 60
- Plant response rating, Surinam grass [1, 18]: 30
- Plant response rating, Barnyardgrass [2, 17]: 90
- Plant response rating, Barnyardgrass [2, 18]: 50
- Plant response rating, Cocklebur [3, 17]: 10
- Plant response rating, Cocklebur [3, 18]: 0
- Plant response rating, Corn (corn (Zea mays); [17]): 20
- Plant response rating, Corn (corn (Zea mays); [18]): 0
- Plant response rating, Crabgrass [4, 17]: 100
- Plant response rating, Crabgrass [4, 18]: 40
- Plant response rating, Foxtail, Giant [5, 17]: 90
- Plant response rating, Foxtail, Giant [5, 18]: 0
- Plant response rating, Lambsquarters [6, 17]: 100
- Plant response rating, Lambsquarters [6, 18]: 100
- Plant response rating, Morningglory [7, 17]: 10
- Plant response rating, Morningglory [7, 18]: 0
- Plant response rating, Pigweed [8, 17]: 100
- Plant response rating, Pigweed [8, 18]: 100
- Plant response rating, Rice (rice (Oryza saliva); [17]): 0
- Plant response rating, Rice (rice (Oryza saliva); [18]): 0
- Plant response rating, Velvetleaf [9, 17]: 0
- Plant response rating, Velvetleaf [9, 18]: 0
- Plant response rating, Surinam grass ([10]; Rate 62 g/ha): 0
- Plant response rating (0 to 100), Surinam grass ([10]; preemergence, Rate 250 g/ha): 90
- Plant response rating (0 to 100), Surinam grass ([10]; preemergence, Rate 500 g/ha): 100
- Plant response rating, Surinam grass ([10]; preemergence, Rate 125 g/ha): 50
- Plant response rating, Bermudagrass ([11]; Rate 62 g/ha): 100
- Plant response rating (0 to 100 where 0 is no effect and 100 is complete control), Bermudagrass ([11]; preemergence, Rate 250 g/ha): 100
- Plant response rating (0 to 100 where 0 is no effect and 100 is complete control), Bermudagrass ([11]; preemergence, Rate 500 g/ha): 100
- Plant response rating, Bermudagrass ([11]; preemergence, Rate 125 g/ha): 100
- Plant response rating, Cocklebur ([12]; Rate 62 g/ha): 0
- Plant response rating (0 to 100), Cocklebur ([12]; preemergence, Rate 250 g/ha): 20
- Plant response rating (0 to 100), Cocklebur ([12]; preemergence, Rate 500 g/ha): 30
- Plant response rating, Cocklebur ([12]; preemergence, Rate 125 g/ha): 0
- Plant response rating, Crabgrass ([13]; Rate 62 g/ha): 100
- Plant response rating (0 to 100), Crabgrass ([13]; preemergence, Rate 250 g/ha): 100
- Plant response rating (0 to 100), Crabgrass ([13]; preemergence, Rate 500 g/ha): 100
- Plant response rating, Crabgrass ([13]; preemergence, Rate 125 g/ha): 100
- Plant response rating, Foxtail, Giant ([14]; Rate 62 g/ha): 0
- Plant response rating (0 to 100), Foxtail, Giant ([14]; preemergence, Rate 250 g/ha): 100
- Plant response rating (0 to 100), Foxtail, Giant ([14]; preemergence, Rate 500 g/ha): 30
- Plant response rating, Foxtail, Giant ([14]; preemergence, Rate 125 g/ha): 50
- Plant response rating, Kochia (kochia (Kochia scoparia); Rate 62 g/ha): 90
- Plant response rating (0 to 100), Kochia (kochia (Kochia scoparia); preemergence, Rate 250 g/ha): 100
- Plant response rating (0 to 100), Kochia (kochia (Kochia scoparia); preemergence, Rate 500 g/ha): 100
- Plant response rating, Kochia (kochia (Kochia scoparia); preemergence, Rate 125 g/ha): 100
- Plant response rating (0 to 100), Pigweed [15]: 100
- Plant response rating, Pigweed ([15]; Rate 125 g/ha): 100
- Plant response rating, Pigweed ([15]; Rate 250 g/ha): 100
- Plant response rating (0 to 100), Soybean (soybean (Glycine max)): 30
- Plant response rating, Soybean (soybean (Glycine max); Rate 125 g/ha): 20
- Plant response rating, Soybean (soybean (Glycine max); Rate 250 g/ha): 20
- Plant response rating, Cupgrass, Woolly ([16]; Rate 62 g/ha): 30
- Plant response rating (0 to 100), Cupgrass, Woolly ([16]; preemergence, Rate 250 g/ha): 90
- Plant response rating (0 to 100), Cupgrass, Woolly ([16]; preemergence, Rate 500 g/ha): 100
- Plant response rating, Cupgrass, Woolly ([16]; preemergence, Rate 125 g/ha): 50
- Plant response rating (0 to 100), Nightshade (Nightshade): 90
- Plant response rating, Sunflower (Sunflower; Rate 125 g/ha): 20
- Plant response rating, Sunflower (Sunflower; Rate 250 g/ha): 50
